Assay results taken from patent EP4635500A1, “THERAPEUTIC AGENT FOR BACTERIAL INFECTION” (Sumitomo Pharma Co., Ltd., priority 2022, dated 2024).
Converted amounts (≈) assume the structure as drawn. Where two headings read alike, the source gives them in different places.

What was measured:
A. baumannii = assay: MIC, broth microdilution, CDC/FDA Antibiotic Resistance Isolate Bank (Example 7, Tables 9, 13, 14); type: cell-based, Acinetobacter baumannii; conditions: for MIC: read-out: MIC
Enterobacterales = assay: MIC, broth microdilution, CDC/FDA Antibiotic Resistance Isolate Bank (Example 7, Tables 8, 11, 12); type: cell-based; conditions: for MIC: read-out: MIC
[1] = MIC distribution, metallo-β-lactamase-producing A. baumannii, inhibitor µg/mL in parentheses

O=C(O)c1cn(C2CC2)c2cc(N3CCNCC3)c(F)cc2c1=O [Ciprofloxacin, ciprofloxacin]
MIC (A. baumannii; Acinetobacter baumannii, A. baumannii KUB No. 5567, AR Bank #70, OXA-58, OXA-100): 8 µg/mL (≈ 24.1 µM)
MIC (A. baumannii; Acinetobacter baumannii, A. baumannii KUB No. 5575, AR Bank #78, OXA-71): > 64 µg/mL
MIC (A. baumannii; Acinetobacter baumannii, A. baumannii KUB No. 5598, AR Bank #101, OXA-24, OXA-65): > 64 µg/mL
MIC (A. baumannii; Acinetobacter baumannii, A. baumannii KUB No. 5706, AR Bank #273, OXA-23, OXA-66): > 64 µg/mL
MIC (A. baumannii; Acinetobacter baumannii, A. baumannii KUB No. 5707, AR Bank #274, OXA-66, OXA-72): > 64 µg/mL
MIC (A. baumannii; Acinetobacter baumannii, A. baumannii KUB No. 5710, AR Bank #277, OXA-24, OXA-65): > 64 µg/mL
MIC (A. baumannii; Acinetobacter baumannii, A. baumannii KUB No. 5713, AR Bank #280, OXA-66): > 64 µg/mL
MIC (A. baumannii; Acinetobacter baumannii, A. baumannii KUB No. 5718, AR Bank #285, OXA-24, OXA-65): > 64 µg/mL
MIC (A. baumannii; Acinetobacter baumannii, KUB No. 5721, AR Bank #288): > 64 µg/mL
MIC (A. baumannii; Acinetobacter baumannii, KUB No. 5722, AR Bank #259): > 64 µg/mL
MIC (A. baumannii; Acinetobacter baumannii, KUB No. 5724, AR Bank #291): > 64 µg/mL
MIC (A. baumannii; Acinetobacter baumannii, KUB No. 5727, AR Bank #294): > 64 µg/mL
MIC (A. baumannii; Acinetobacter baumannii, KUB No. 5728, AR Bank #295): > 64 µg/mL
MIC (A. baumannii; Acinetobacter baumannii, KUB No. 5729, AR Bank #296): > 64 µg/mL
MIC (A. baumannii; Acinetobacter baumannii, KUB No. 5730, AR Bank #297): > 64 µg/mL
MIC (A. baumannii; Acinetobacter baumannii, KUB No. 5732, AR Bank #299): > 64 µg/mL
MIC (A. baumannii; Acinetobacter baumannii, KUB No. 5733, AR Bank #300): > 64 µg/mL
MIC (A. baumannii; Acinetobacter baumannii, KUB No. 5734, AR Bank #301): > 64 µg/mL
MIC (A. baumannii; Acinetobacter baumannii, KUB No. 5735, AR Bank #302): > 64 µg/mL
MIC (A. baumannii; Acinetobacter baumannii, KUB No. 5737, AR Bank #304): > 64 µg/mL
MIC (A. baumannii; Acinetobacter baumannii, KUB No. 5738, AR Bank #305): > 64 µg/mL
MIC (A. baumannii; Acinetobacter baumannii, KUB No. 5739, AR Bank #306): > 64 µg/mL
MIC (A. baumannii; Acinetobacter baumannii, KUB No. 5741, AR Bank #308): > 64 µg/mL
MIC (A. baumannii; Acinetobacter baumannii, KUB No. 5742, AR Bank #309): > 64 µg/mL
MIC (A. baumannii; Acinetobacter baumannii, KUB No. 5743, AR Bank #310): > 64 µg/mL
MIC (A. baumannii; Acinetobacter baumannii, KUB No. 5745, AR Bank #312): 8 µg/mL (≈ 24.1 µM)
MIC80 (A. baumannii; Acinetobacter baumannii, 55 isolates of A. baumannii, read-out: MIC80): > 64 µg/mL
MIC90 (A. baumannii; Acinetobacter baumannii, 55 isolates of A. baumannii, read-out: MIC90): > 64 µg/mL
Number of isolates at MIC 16 µg/mL (A. baumannii; [1]): 1
Number of isolates at MIC 32 µg/mL (A. baumannii; [1]): 1
Number of isolates at MIC >32 µg/mL (A. baumannii; [1]): 1
Number of isolates at MIC >64 µg/mL (A. baumannii; [1]): 1
MIC80 (Enterobacterales; 154 strains of Enterobacterales, read-out: MIC80): > 64 µg/mL
MIC90 (Enterobacterales; 154 strains of Enterobacterales, read-out: MIC90): > 64 µg/mL
MIC (Enterobacterales; Citrobacter freundii, KUB No. 5654, AR Bank # 157): > 64 µg/mL
MIC (Enterobacterales; Escherichia coli, Escherichia coli KUB No. 5783, AR Bank #437): > 64 µg/mL
MIC (Enterobacterales; Escherichia coli, Escherichia coli KUB No. 5794, AR Bank #450): 0.06 µg/mL (≈ 0.181 µM)
MIC (Enterobacterales; Escherichia coli, Escherichia coli KUB No. 5796, AR Bank #452): > 64 µg/mL
MIC (Enterobacterales; Escherichia coli, KUB No. 5552, AR Bank# 55): > 64 µg/mL
MIC (Enterobacterales; Escherichia coli, KUB No. 5558, AR Bank # 61): ≤ 0.03 µg/mL
MIC (Enterobacterales; Escherichia coli, KUB No. 5564, AR Bank # 67): > 64 µg/mL
MIC (Enterobacterales; Escherichia coli, KUB No. 5566, AR Bank # 69): 0.06 µg/mL (≈ 0.181 µM)
MIC (Enterobacterales; Escherichia coli, KUB No. 5574, AR Bank # 77): ≤ 0.03 µg/mL
MIC (Enterobacterales; Escherichia coli, KUB No. 5582, AR Bank # 85): > 64 µg/mL
MIC (Enterobacterales; Escherichia coli, KUB No. 5586, AR Bank # 89): ≤ 0.03 µg/mL
MIC (Enterobacterales; Escherichia coli, KUB No. 5616, AR Bank # 119): > 64 µg/mL
MIC (Enterobacterales; Escherichia coli, KUB No. 5634, AR Bank # 137): > 64 µg/mL
MIC (Enterobacterales; Escherichia coli, KUB No. 5764, AR Bank # 368): ≤ 0.03 µg/mL
MIC (Enterobacterales; Escherichia coli, KUB No. 5765, AR Bank # 369): 0.06 µg/mL (≈ 0.181 µM)
MIC (Enterobacterales; Escherichia coli, KUB No. 5766, AR Bank # 370): > 64 µg/mL
MIC (Enterobacterales; Escherichia coli, KUB No. 5768, AR Bank # 372): > 64 µg/mL
MIC (Enterobacterales; Escherichia coli, KUB No. 5770, AR Bank # 374): > 64 µg/mL
MIC (Enterobacterales; Escherichia, KUB No. 57, AR Bank # 436 (row cut off)): > 64 µg/mL
MIC (Enterobacterales; Klebsiella aerogenes, Enterobacter aerogenes, KUB No. 5559, AR Bank # 62): 2 µg/mL (≈ 6.04 µM)
MIC (Enterobacterales; Klebsiella aerogenes, Enterobacter aerogenes, KUB No. 5571, AR Bank # 74): 0.06 µg/mL (≈ 0.181 µM)
MIC (Enterobacterales; Klebsiella aerogenes, Enterobacter aerogenes, KUB No. 5658, AR Bank # 161): 0.06 µg/mL (≈ 0.181 µM)
MIC (Enterobacterales; Klebsiella aerogenes, Enterobacter aerogenes, KUB No. 5777, AR Bank # 431): 1 µg/mL (≈ 3.02 µM)
MIC (Enterobacterales; Klebsiella oxytoca, KUB No. 5644, AR Bank # 147): ≤ 0.03 µg/mL
MIC (Enterobacterales; Klebsiella oxytoca, KUB No. 5771, AR Bank # 375): ≤ 0.03 µg/mL
